In this assay the target is T1, DP receptor (Homo sapiens, UniProt Q13258).
T1 construct: the human cell line LS174T, which expresses the endogenous DP receptor; endogenous in cells; host or cells: LS174T human cell line
T1 sequence (Q13258 1-359): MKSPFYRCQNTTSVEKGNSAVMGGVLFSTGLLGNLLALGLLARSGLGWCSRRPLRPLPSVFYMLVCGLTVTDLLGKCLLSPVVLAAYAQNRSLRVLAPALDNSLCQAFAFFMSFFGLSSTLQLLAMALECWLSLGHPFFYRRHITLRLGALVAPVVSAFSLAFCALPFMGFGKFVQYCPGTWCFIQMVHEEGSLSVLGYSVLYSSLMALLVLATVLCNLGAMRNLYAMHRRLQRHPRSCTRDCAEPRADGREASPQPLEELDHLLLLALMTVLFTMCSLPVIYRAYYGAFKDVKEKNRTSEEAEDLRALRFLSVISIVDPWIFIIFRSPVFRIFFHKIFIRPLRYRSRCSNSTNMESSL
Description: SPA cAMP assay in human LS174 T cells (human DP functional assay). The format is cell-based. Conditions: inhibition of PGD2 (15 nM final) stimulated cAMP, LS174T cells expressing endogenous DP receptor. As for the experimental part:
The inhibitory effects of the compounds according to the invention are assessed in a human DP functional assay. A cAMP assay is employed using the human cell line LS174T, which expresses the endogenous DP receptor.
Protocol for SPA cAMP Assay in Human LS174 T Cells
• 1) Add equal volumes of tracer, antiserum and SPA anti-rabbit reagent to a bottle, ensuring that a sufficient volume of this mixture is prepared for the desired number of wells (150 μL/well). • 2) Mix thoroughly. • 3) This immunoreagent solution should be freshly prepared before each assay and not re-used.
Add 50 μL of […] IBMX into 100 mL PBS to make a final concentration of 100 μM and sonicate at 30° C. for 20 minutes.
Before each assay, it is freshly prepared. Add 3 μL of 10 mM stock solution to 20 mL DMSO, mix it thoroughly, and transfer 10 mL to 40 mL PBS.
Compound dilution is carried out in Biomex 2000 (Beckman) using Method 1_cAMP DP 11 points.
5 μL of each compound from the 10 mM stock compound plates is transferred to the wells of a 96-well plate respectively as below.
Fill the plate with 45 μL of DMSO except column 7 is filled with 28 μL DMSO. Pipette column 1 thoroughly, and transfer 12 μL into column 7 parallel. Perform 1:10 serial dilution from column 1 to column 6 and from column 7 to column 11 by transfer 5 μL to 45 μL DMSO to make following concentrations:
Fill a new 96-well plate with 247.5 μL of compound dilution buffer. Transfer 2.5 μL of serially diluted compounds from above plate to the new plate (1:100 dilution) as following:
Cell Growth • 1. […] Remove growth medium from cells. Cells in T165 flask are washed twice with 4 mL Trypsin followed by incubation at 37° C. and 5% CO2 for 3 minutes. • 4. Add 10 mL of medium and pipette thoroughly to separate the cells and count the cells. • 5. […] Assay Procedure Day 1 • Seed 45,000 cells/well in 200 μL medium in 96-well plates. Incubate the cell plate at 37° C., 5% CO2 and 95% humidity overnight. Day 2 • 1. Perform compound dilution. • 2. Prepare assay buffer, lysis buffer 1 & 2, PGD2 and standard. • 3. Aspirate media from the cells and add 100 μL of compound solution using Zymark Sciclone-ALH/FD protocol cAMP DP. • 4. Incubate the cells at 37° C., 5% CO2 and 95% humidity for 15 minutes. • 5. […] Aspirate media from the cells and add 50 μL of lysis buffer 1 using Zymark protocol cAMP DP lysis, and incubate at room temperature with shaking for 30 minutes. • 7. Add 150 μL immunoreagent to all wells (a total volume of 200 μL/well). • 8. Seal the plates and shake for 2 minutes, put into the chamber of the Wallac microtitre plate μ scintillation counter for 16 hours. […] Data Processing Set up standard curve of cAMP versus CPM.
The cAMP concentrations (pmol/mL) of unknown samples are calculated from a standard curve of cAMP versus CPM. % inhibition is calculated using the following formula: […]
For orientation: Cyclic AMP is a second messenger, typically raised through Gs and lowered through Gi signalling.

pIC50: −log10 of the molar value. Structures can show the parent of a compound that is named as a salt.

The pIC50 is −log10 of the IC50, conventionally taken in molar units. Read a high pIC50 as a low IC50. Compound `COc1ccc(CCNc2cc(-c3cnc4ccccc4c3)nc(OC)n2)cc1` [Example 10(b), [2-(4-Methoxy-phenyl)-ethyl]-(2-methoxy-6-quinolin-3-yl-pyrimidin-4-yl)-amine] had a pIC50 of 9.15.
`COc1ccc(CCNc2cc(-c3ccc4[nH]ccc4c3)nc(OC)n2)cc1` [Example 10(c), [6-(1H-Indol-5-yl)-2-methoxy-pyrimidin-4-yl]-[2-(4-methoxy-phenyl)-ethyl]-amine] had a negative logarithm of the IC50 (pIC50) of 9.15.
As for `COc1ccc(CCNc2cc(-c3ccccc3NS(C)(=O)=O)nc(OC)n2)cc1` [Example 10(d), N-(2-{2-Methoxy-6-[2-(4-methoxy-phenyl)-ethylamino]-pyrimidin-4-yl}-phenyl)-methanesulfonamide], the figure is 8.70; as for `COc1ccc(CCNc2cc(-c3ccc(C(N)=O)cc3)nc(OC)n2)cc1` [Example 10(e), 4-{2-Methoxy-6-[2-(4-methoxy-phenyl)-ethylamino]-pyrimidin-4-yl}-benzamide], 8.64.
With `COc1ccc(CCNc2cc(-c3cc4ccccc4s3)nc(OC)n2)cc1` [Example 10(g), (6-Benzo[b]thiophen-2-yl-2-methoxy-pyrimidin-4-yl)-[2-(4-methoxy-phenyl)-ethyl]-amine] the figure was 8.29; with `COc1ccc(CCNc2cc(-c3ccc(C(C)=O)cc3)nc(OC)n2)cc1` [Example 10(h), 1-(4-{2-Methoxy-6-[2-(4-methoxy-phenyl)-ethylamino]-pyrimidin-4-yl}-phenyl)-ethanone], 8.20.
As for `COc1ccc(CCNc2cc(-c3cccc(S(C)(=O)=O)c3)nc(OC)n2)cc1` [Example 10(i)], the figure is 8.14.
In the case of `COc1ccc(CCNc2cc(-c3ccc4c(c3)CCO4)nc(OC)n2)cc1` [Example 10(j), [6-(2,3-Dihydro-benzofuran-5-yl)-2-methoxy-pyrimidin-4-yl]-[2-(4-methoxy-phenyl)-ethyl]-amine], the pIC50 was 7.89.
As for `COc1ccc(CCNc2cc(-c3ccc(N4CCOCC4)cc3)nc(OC)n2)cc1` [Example 10(k), [2-Methoxy-6-(4-morpholin-4-yl-phenyl)-pyrimidin-4-yl]-[2-(4-methoxy-phenyl)-ethyl]-amine], the figure is 7.89; as for `COc1ccc(CCNc2cc(-c3ccc(-c4cnco4)s3)nc(OC)n2)cc1` [Example 11(a), [2-Methoxy-6-(5-oxazol-5-yl-thiophen-2-yl)-pyrimidin-4-yl]-[2-(4-methoxy-phenyl)-ethyl]-amine], 8.64; as for `COc1ccc(CCNc2cc(-c3ccc(C(F)F)s3)nc(OC)n2)cc1` [Example 12, [6-(5-Difluoromethyl-thiophen-2-yl)-2-methoxy-pyrimidin-4-yl]-[2-(4-methoxy-phenyl)-ethyl]-amine], 7.96.
As for `COc1ccc(CCNc2cc(-c3ccc(CN4CCCC4)s3)nc(OC)n2)cc1` [Example 13(a), [2-(4-Methoxy-phenyl)-ethyl]-[2-methoxy-6-(5-pyrrolidin-1-ylmethyl-thiophen-2-yl)-pyrimidin-4-yl]-amine], the figure is 7.36; as for `COc1ccc(CCNc2cc(-c3cccc(CNCCc4ccc(O)cc4)c3)nc(OC)n2)cc1` [Example 13(c), 4-[2-(3-{2-Methoxy-6-[2-(4-methoxy-phenyl)-ethylamino]-pyrimidin-4-yl}-benzylamino)-ethyl]-phenol hydrochloride], 8.00; as for `COc1ccc(CCNc2cc(-c3ccc(F)c(CNCCN(C)C)c3)nc(OC)n2)cc1` [Example 13(d), N-(2-Fluoro-5-{2-methoxy-6-[2-(4-methoxy-phenyl)-ethylamino]-pyrimidin-4-yl}-benzyl)-N′,N′-dimethyl-ethane-1,2-diamine hydrochloride], 7.25.
As for `COc1ccc(CCNc2cc(-c3ccc4[nH]cnc4c3)nc(OC)n2)cc1` [Example 14(a), [6-(1H-Benzoimidazol-5-yl)-2-methoxy-pyrimidin-4-yl]-[2-(4-methoxy-phenyl)-ethyl]-amine], the figure is 8.57.
The compound `COc1ccc(CCNc2cc(-c3ccc4[nH]c(=O)oc4c3)nc(OC)n2)cc1` [Example 14(c), 6-{2-Methoxy-6-[2-(4-methoxy-phenyl)-ethylamino]-pyrimidin-4-yl}-3H-benzooxazol-2-one] had a pIC50 of 8.15.
As for `COc1ccc(CCNc2cc(-c3cccc(O)c3)nc(OC)n2)cc1` [Example 15(a), 3-{2-Methoxy-6-[2-(4-methoxy-phenyl)-ethylamino]-pyrimidin-4-yl}-phenol hydrochloride], the figure is 10.00.
With `COc1nc(NCCc2ccc(Cl)cc2Cl)cc(-c2cccc(C(C)(C)C(=O)O)c2)n1` [Example 15(d), 2-(3-{6-[2-(2,4-Dichloro-phenyl)-ethylamino]-2-methoxy-pyrimidin-4-yl}-phenyl)-2-methyl-propionic acid hydrochloride] the figure was 9.52; with `COc1ccc(CCNc2cc(-c3cccc(C(=O)O)c3)nc(SC)n2)cc1OC` [Example 16(b), 3-{6-[2-(3,4-Dimethoxy-phenyl)-ethylamino]-2-methylsulfanyl-pyrimidin-4-yl}-benzoic acid], 6.61; with `COc1ccc(CCNc2cc(-c3ccc(OC)c(OC)c3)nc(OC(C)C)n2)cc1OC` [Example 17(a), [2-(3,4-Dimethoxy-phenyl)-ethyl]-[6-(3,4-dimethoxy-phenyl)-2-isopropoxy-pyrimidin-4-yl]-amine], 5.17.
As for `CCOc1nc(NCCc2ccc(OC)c(OC)c2)cc(-c2ccc(OC)c(OC)c2)n1` [Example 17(b), [6-(3,4-Dimethoxy-phenyl)-2-ethoxy-pyrimidin-4-yl]-[2-(3,4-dimethoxy-phenyl)-ethyl]-amine], the figure is 6.18; as for `CCc1nc(NCCc2ccc(OC)cc2)cc(-c2cccc(OC)c2)n1` [Example 18, [2-Ethyl-6-(3-methoxy-phenyl)-pyrimidin-4-yl]-[2-(4-methoxy-phenyl)-ethyl]-amine], 6.66; as for `COc1ccc(CCNc2cc(-c3cccc(OC)c3)nc(N(C)C)n2)cc1` [Example 19, 6-(3-Methoxy-phenyl)-N*4*-[2-(4-methoxy-phenyl)-ethyl]-N*2*,N*2*-dimethyl-pyrimidine-2,4-diamine hydrochloride], 5.33.
Turning to `COc1ccc(CCNc2cc(-c3ccc(F)c(C(=O)O)c3)nc(OC)n2)cc1` [Example 20(a), 2-Fluoro-5-{2-methoxy-6-[2-(4-methoxy-phenyl)-ethylamino]-pyrimidin-4-yl}-benzoic acid], the pIC50 is 9.40.
Regarding `COc1ccc(CCNc2cc(-c3ccc[n+]([O-])c3)nc(OC)n2)cc1` [Example 21(a), [2-Methoxy-6-(1-oxy-pyridin-3-yl)-pyrimidin-4-yl]-[2-(4-methoxy-phenyl)-ethyl]-amine], the negative-log IC50 (pIC50) is 6.83.
As for `COc1nc(NCCc2ccc3c(c2)OC(F)(F)O3)cc(-c2ccc[n+]([O-])c2)n1` [Example 21(b), [2-(2,2-Difluoro-benzo[1,3]dioxol-5-yl)-ethyl]-[2-methoxy-6-(1-oxy-pyridin-3-yl)-pyrimidin-4-yl]-amine], the figure is 5.67; as for `CCOC(=O)C(C)(C)Oc1cccc(-c2cc(NCCc3ccc(OC)cc3)nc(OC)n2)c1` [Example 22(a), 2-(3-{2-Methoxy-6-[2-(4-methoxy-phenyl)-ethylamino]-pyrimidin-4-yl}-phenoxy)-2-methyl-propionic acid ethyl ester], 7.22.

Values taken from patent US7517889B2, “2,6-substituted-4-monosubstitutedamino-pyrimidine as prostaglandin D2 receptor antagonists” (Aventis Pharmaceuticals, Inc., priority 2004, dated 2009).
